Data: patent US20120065179A1, “PRODRUG COMPRISING BETA-KETO CARBOXYLIC ACID, BETA-KETO CARBOXYLIC ACID SALT OR BETA-KETO CARBOXYLIC ACID ESTER FOR DRUG DELIVERY” (YKI, Ytemiska Institutet AB, priority 2009, published 2012)
Several values for one entry are separate records, joined by “and”; a condition that tells them apart may be missing. Equal values may be shown once.

Columns and labels:
[1] = Storage stability of beta-keto calcium salt prodrug of Nabumetone (17 days at 60° C., HPLC); assay type: physicochemical; conditions: for Relative amount of calcium salt beta-keto prodrug/Nabumetone remaining after 17 days at 60° C.: dry calcium salt, oven at 60° C.
[2] = Aqueous solubility of sodium beta-keto salt prodrug of Nabumetone (Example 13b); assay type: physicochemical; conditions: clear liquid after 3.5 h at 37° C. in 0.5 M NaOH; 200 μL diluted with 5.0 ml mobile phase
Method: 12.1 mg of the of ethyl-5-(6-methoxy-2-naphthyl)-beta-keto-pentanoate product prepared and purified as in Example 8 was mixed with 25 mL of a 0.5 M aqueous solution NaOH and homogenised on a vortex mixer. […] 15 minutes after preparation of the sample, the sample was transferred to an oil bath set at 37° C. with continuous gentle magnetic stirring, and kept there for 3.5 hours. Crystalline flakes remained in the sample at the end of the 3.5 hours heat-treatment, and the sample was thereafter centrifuged and the clear liquid above the sedimented crystals was analysed by HPLC as described above.
After storage around one hour at room temperature a fraction of the sample was then filtered twice through a 0.2 μm filter (Whatman, 0.2 μm PS) fitted to a syringe to give a clear solution. 200 μL of this filtered solution was transferred, in a tightly closed vessel, to an oil bath at 95° C. and kept at this temperature for about 5 hours to bring about quantitative decarboxylation of the labile, dissolved beta-keto carboxylic salt prodrug derivative of Nabumetone.
The heated sample was then mixed with 35 mL of mobile phase (see Example 1) whereby a few solid crystals (comprising Nabumetone) was seen to not dissolve. In order to assure a correct sampling for HPLC analysis, 5 mL of the 35 mL sample was filtered through a 0.2 μm filter, after the whole 35 mL sample had been pH adjusted to 4.21 by 300 μL 0.1 M HCl+100 μL 1 M HCl, to assure that the pH of the sample was close to the pH of the mobile phase itself (pH 4.30). The filtered solution was thereafter analysed by HPLC and found to contain 0.777 mg Nabumetone per liter. If recalculated to the corresponding concentration of nabumetone equivalents in the form of the beta-keto salt prodrug present in dissolved form in the filtered 200 μl sample that was subsequently heat-treated to form Nabumetone above, the obtained concentration corresponds to a Nabumetone concentration of 136.7 mg Nabumetone per liter in the clear aqueous solution, at room temperature, before the heat-treatment at 95° C.

[3] = In-vitro hydrolysis of Nabumetone beta-keto ester pro-prodrug and release of Nabumetone in model blood electrolyte solution at 37° C.; assay type: physicochemical; conditions: model blood solutes solution
[4] = Storage stability of benzoylacetate salts and their corresponding acid (HPLC or gravimetric); assay type: physicochemical; conditions: for weight % of initial amount: Solid benzoylacetic acid, room T and ambient indoor humidity
Method: A 0.2 M solution of ethyl benzoyl acetate (90%, Sigma Aldrich) in 0.5 M NaOH (aq) was prepared at room temperature and stirred for typically 5-24 hours, still at room temperature. After this time a major part of the ethyl benzoyl acetate had been transformed into dissolved sodium benzoyl acetate, as evidenced by monitoring the reaction by analysis of samples by reversed phase HPLC. Some acetophenone and remaining ethyl benzoyl acetate were typically present in the samples, but in minor amounts. The method employed a C8 column with an inner diameter of 150×4.6 mm and 5 micron particles. The mobile phase consisted of 400 ml deionized water+600 ml acetonitrile+0.196 g H3PO4 (85%)+2.760 g NaH2PO4*H2O. The flow rate was set to 1.0 mL/min and UV detection at 254 nm was employed for analysis of the compounds ethylbenzoylacetate (precursor), benzoylacetate (model prodrug) and acetophenone (model drug).
The storage stability of the sodium and calcium salts of benzoylacetate, and of benzoylacetic acid, in solid form, and in aqueous solutions, was investigated by storage of samples under various conditions (see Table 3a above) with regular HPLC- or gravimetric measurements of the samples from time to time. Samples denoted “neutralized” were prepared from a solution prepared as described in Example 1, which was neutralized with diluted HCl after performing the steps in Example 1.
From the data it can be concluded that the best storage stability at room temperature is obtained by storage in the form of the calcium salt.

[5] = Sustained release of acetophenone in vitro in pig blood at 37° C.; conditions: for Benzoyl acetate ion concentration: pig blood pH 6.63

## 5-(6-methoxy-2-naphthyl)-beta-keto-pentanoate [Beta keto salt prodrug]
[1]; calcium salt form at 20° C., rule of thumb of doubling of reaction rate per 10° C.
  half life: ~270 days
[1]; dry calcium salt after 17 days at 60° C., redissolved in water, HPLC
  Obtained value (area units): 1591 area units
[1]
  Relative amount of calcium salt beta-keto prodrug/Nabumetone remaining after 17 days at 60° C.: 54.7%
[1]; listed as calcium beta-keto salt prodrug of Nabumetone
  Relative amount of calcium salt beta-keto prodrug/Nabumetone remaining after 17 days at 60° C.: more than 50%
[1]; recalculated for dilution
  Expected value if no breakdown occured during storage and a 100% yield was obtained upon precipitation with calcium chloride: 55938 area units

## CCOC(=O)CC(=O)CCc1ccc2cc(OC)ccc2c1 [Pro-prodrug/beta-keto ester, ethyl-5-(6-methoxy-2-naphthyl)-beta-keto-pentanoate]
[2]
  Area at retention time […] characteristic for detection of the beta-keto ester pro-prodrug: 632 arbitrary units
[3]; Time 0.00 hours
  Pro-prodrug/beta-keto ester (HPLC peak area): 1440 arbitrary units
[3]; Time 0.67 hours
  Pro-prodrug/beta-keto ester (HPLC peak area): 1368 arbitrary units
[3]; Time 1.67 hours
  Pro-prodrug/beta-keto ester (HPLC peak area): 1395 arbitrary units
[3]; Time 2.67 hours
  Pro-prodrug/beta-keto ester (HPLC peak area): 1145 arbitrary units
[3]; Time 4.58 hours
  Pro-prodrug/beta-keto ester (HPLC peak area): 1130 arbitrary units
[3]; Time 22.6 hours
  Pro-prodrug/beta-keto ester (HPLC peak area): 780 arbitrary units
[3]; Time 28.8 hours
  Pro-prodrug/beta-keto ester (HPLC peak area): 672 arbitrary units
[3]; Time 48.8 hours
  Pro-prodrug/beta-keto ester (HPLC peak area): 618 arbitrary units
[3]; Time 53.6 hours
  Pro-prodrug/beta-keto ester (HPLC peak area): 0 arbitrary units
[3]; Time 70.3 hours
  Pro-prodrug/beta-keto ester (HPLC peak area): 227 arbitrary units and 245 arbitrary units
[3]; Time 121.25 hours
  Pro-prodrug/beta-keto ester (HPLC peak area): 0 arbitrary units
[3]; Time 145.0 hours
  Pro-prodrug/beta-keto ester (HPLC peak area): 0 arbitrary units
[3]; Time 172.6 hours
  Pro-prodrug/beta-keto ester (HPLC peak area): 0 arbitrary units
[3]; Time 197.3 hours
  Pro-prodrug/beta-keto ester (HPLC peak area): 0 arbitrary units
[3]; Time 218.4 hours
  Pro-prodrug/beta-keto ester (HPLC peak area): 0 arbitrary units
[3]; Time 293.7 hours
  Pro-prodrug/beta-keto ester (HPLC peak area): 0 arbitrary units
[3]; Time 335 hours
  Pro-prodrug/beta-keto ester (HPLC peak area): 0 arbitrary units

## COc1ccc2cc(CCC(=O)CC(=O)O)ccc2c1 [Prodrug/beta-keto anion, 5-(6-methoxy-2-naphthyl)-beta-keto-pentanoate]
[3]; Time 0.00 hours
  Prodrug/beta-keto anion (HPLC area): 2055 arbitrary units
[3]; Time 0.67 hours
  Prodrug/beta-keto anion (HPLC area): 2313 arbitrary units
[3]; Time 1.67 hours
  Prodrug/beta-keto anion (HPLC area): 2383 arbitrary units
[3]; Time 2.67 hours
  Prodrug/beta-keto anion (HPLC area): 2266 arbitrary units
[3]; Time 4.58 hours
  Prodrug/beta-keto anion (HPLC area): 2204 arbitrary units
[3]; Time 22.6 hours
  Prodrug/beta-keto anion (HPLC area): 2079 arbitrary units
[3]; Time 28.8 hours
  Prodrug/beta-keto anion (HPLC area): 2284 arbitrary units
[3]; Time 48.8 hours
  Prodrug/beta-keto anion (HPLC area): 2312 arbitrary units
[3]; Time 53.6 hours
  Prodrug/beta-keto anion (HPLC area): 2350 arbitrary units
[3]; Time 70.3 hours
  Prodrug/beta-keto anion (HPLC area): 2087 arbitrary units and 2313 arbitrary units
[3]; Time 96.8 hours
  Prodrug/beta-keto anion (HPLC area): 1915 arbitrary units and 1922 arbitrary units
[3]; Time 121.25 hours
  Prodrug/beta-keto anion (HPLC area): 1620 arbitrary units
[3]; Time 145.0 hours
  Prodrug/beta-keto anion (HPLC area): 1444 arbitrary units
[3]; Time 172.6 hours
  Prodrug/beta-keto anion (HPLC area): 1220 arbitrary units
[3]; Time 197.3 hours
  Prodrug/beta-keto anion (HPLC area): 1043 arbitrary units
[3]; Time 218.4 hours
  Prodrug/beta-keto anion (HPLC area): 943 arbitrary units
[3]; Time 293.7 hours
  Prodrug/beta-keto anion (HPLC area): 400 arbitrary units
[3]; Time 335 hours
  Prodrug/beta-keto anion (HPLC area): 398.5 arbitrary units

## O=C(O)CC(=O)c1ccccc1 [benzoylacetic acid]
[4]; storage time 0 days
  weight % of initial amount: 100 weight %
[4]; storage time 9 days
  weight % of initial amount: 94.7 weight %
[4]; storage time 23 days
  weight % of initial amount: 87.4 weight %
[4]; storage time 27 days
  weight % of initial amount: 85.4 weight %
[4]; storage time 29 days
  weight % of initial amount: 84.4 weight %
[4]; storage time 35 days
  weight % of initial amount: 81.9 weight %
[4]; storage time 42 days
  weight % of initial amount: 79.4 weight %
[4]; storage time 52 days
  weight % of initial amount: 73.6 weight %
[4]; solid dry acid, typical indoor conditions
  half-life: ~100 days

## benzoyl acetate [Benzoyl acetate ion]
[5]; pig blood pH 6.63, 37° C.
  half life: about 3 hours
  period of sustained release of the acetophenone (model drug): at least 6 hours
[5]; Time at 37° C. 0.25
  Benzoyl acetate ion concentration: 1.83 mM
[5]; Time at 37° C. 1.33
  Benzoyl acetate ion concentration: 1.54 mM
[5]; Time at 37° C. 2.58 (sampling time possibly exchanged with 4.75)
  Benzoyl acetate ion concentration: 1.17 mM
[5]; Time at 37° C. 4.75 (sampling time possibly exchanged with 2.58)
  Benzoyl acetate ion concentration: 0.929 mM
[5]; Time at 37° C. 5.58
  Benzoyl acetate ion concentration: 0.724 mM
[5]; Time at 37° C. 6.58
  Benzoyl acetate ion concentration: 0.641 mM
[5]; Time at 37° C. 22.58
  Benzoyl acetate ion concentration: 0.0356 mM
[5]; Time at 37° C. −0.17 (analysed just before heating to 37° C.)
  Benzoyl acetate ion concentration: 2.30 mM
